22 compounds from US10577349B2 (Sanford Burnham Prebys Medical Discovery Institute, priority 2015, dated 2020) can be followed below.

Assay [1] deals with HCV cap-dependent translation. As to the kind of experiment: In vitro translation assay, FF-HCV-Ren construct, cap-dependent (FF luciferase). The format is biochemical, rabbit reticulocyte lysates. An outline of the steps: (§1)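 RRL + Translation Mix -Met/-Leu 1:1; cpd pre-inc 1 h RT; 0.1 μg RNA/well; 2 h 30° C; Dual-Glo reagent 1 → FF read, reagent 2 → Ren read, 10 min each. Counter-screen: cpd added post-translation.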

Assay [2] concerns the target EmCV Cap-dependent translation. Nature of the assay: In vitro translation assay, FF-EmCV-Ren construct, cap-dependent (FF luciferase). The format is biochemical, rabbit reticulocyte lysates. A digest of the protocol:
as §1

For a further assay, the system named is A375. Nature of the assay: 48 h Cytotoxicity A375. It counts as cell-based. To be noted: Homo sapiens, A-375.
The target in assay [3] is HCV cap-independent translation. Nature of the assay: In vitro translation assay, FF-HCV-Ren construct, cap-independent (Ren luciferase). The format is biochemical, rabbit reticulocyte lysates. A digest of the protocol:
as §1

In assay [4] the target is EmCV Cap-independent translation. Nature of the assay: In vitro translation assay, FF-EmCV-Ren construct, cap-independent (Ren luciferase). It counts as biochemical, rabbit reticulocyte lysates. A digest of the protocol: as §1

For `O=C(/C=C/c1cc(Cl)ccn1)c1c(-c2ccccc2)c2cc(Cl)ccc2[nH]c1=O` [Compound 71, 3-[(2E)-3-(4-chloro(2-pyridyl))prop-2-enoyl]-6-chloro-4-phenylhydroquinolin-2-one], the IC50 in assay [1] is 10000 to 20000 nM; in assay [2], above 20000 nM; in the assay on A375, 2000 to 10000 nM; in assay [3] it was above 20000 nM; in assay [4], above 20000 nM.

With `N#Cc1cncc(/C=C/C(=O)c2c(-c3ccccc3)c3cc(Cl)ccc3[nH]c2=O)c1` [Compound 72, 5-[(1E)-3-(6-chloro-2-oxo-4-phenyl(3-hydroquinolyl))-3-oxoprop-1-enyl]pyridine-3-carbonitrile], the IC50 in assay [1] is 2000 to 10000 nM; in assay [2], 2000 to 10000 nM; in the assay with A375 it was below 2000 nM; in assay [3], 2000 to 10000 nM; in assay [4], 2000 to 10000 nM.

As to `COCc1cncc(/C=C/C(=O)c2c(-c3ccccc3)c3cc(Cl)ccc3[nH]c2=O)c1` [Compound 73, 3-{(2E)-3-[5-(methoxymethyl)(3-pyridyl)]prop-2-enoyl}-6-chloro-4-phenylhydroquinolin-2-one], the IC50 in assay [1] is 2000 to 10000 nM; in assay [2], 2000 to 10000 nM; in the assay with A375, below 2000 nM; in assay [3], 2000 to 10000 nM; in assay [4] it was 2000 to 10000 nM.

In the case of `Cc1cncc(/C=C/C(=O)c2c(-c3ccccc3)c3cc(Cl)ccc3[nH]c2=O)c1` [Compound 74, 3-[(2E)-3-(5-methyl(3-pyridyl))prop-2-enoyl]-6-chloro-4-phenylhydroquinolin-2-one], the IC50 is 2000 to 10000 nM in assay [1]; 2000 to 10000 nM in assay [2]; below 2000 nM in the assay on A375; 2000 to 10000 nM in assay [3]; 2000 to 10000 nM in assay [4].

On to `COc1ccnc(/C=C/C(=O)c2c(-c3ccccc3)c3cc(Cl)ccc3[nH]c2=O)c1` [Compound 75, 3-[(2E)-3-(4-methoxy(2-pyridyl))prop-2-enoyl]-6-chloro-4-phenylhydroquinolin-2-one], for which the IC50 was 2000 to 10000 nM in assay [1]; 2000 to 10000 nM in assay [2]; below 2000 nM with A375; 2000 to 10000 nM in assay [3]; 2000 to 10000 nM in assay [4].

Regarding `O=C(/C=C/c1cncc(C(F)(F)F)c1)c1c(-c2ccccc2)c2cc(Cl)ccc2[nH]c1=O` [Compound 76, 3-{(2E)-3-[5-(trifluoromethyl)(3-pyridyl)]prop-2-enoyl}-6-chloro-4-phenylhydroquinolin-2-one], the IC50 is 2000 to 10000 nM in assay [1]; 2000 to 10000 nM in assay [2]; below 2000 nM in the assay on A375; 2000 to 10000 nM in assay [3]; 2000 to 10000 nM in assay [4].

`O=C(/C=C/c1cncc(F)c1)c1c(-c2ccc(F)cc2)c2cc(Cl)ccc2[nH]c1=O` [Compound 77, 3-[(2E)-3-(5-fluoro(3-pyridyl))prop-2-enoyl]-6-chloro-4-(4-fluorophenyl)hydroquinolin-2-one]: the IC50 is 2000 to 10000 nM in assay [1]; 2000 to 10000 nM in assay [2]; below 2000 nM in the assay with A375; 2000 to 10000 nM in assay [3]; 2000 to 10000 nM in assay [4].

Regarding `O=C(/C=C/c1ccccn1)c1c(-c2ccc(F)cc2)c2cc(Cl)ccc2[nH]c1=O` [Compound 78, (E)-6-Chloro-4-(4-fluoro-phenyl)-3-(3-pyridin-2-yl-acryloyl)-1H-quinolin-2-one], the IC50 in assay [1] is 2000 to 10000 nM; in assay [2], 2000 to 10000 nM; in the assay with A375, below 2000 nM; in assay [3], 2000 to 10000 nM; in assay [4], 2000 to 10000 nM.

Consider `COc1ccc(-c2c(C(=O)/C=C/c3cncc(F)c3)c(=O)[nH]c3ccc(Cl)cc23)cc1` [Compound 79, 3-[(2E)-3-(5-fluoro(3-pyridyl))prop-2-enoyl]-6-chloro-4-(4-methoxyphenyl)hydroquinolin-2-one], for which the concentration for half-maximal inhibition (IC50) was 2000 to 10000 nM in assay [1]; 2000 to 10000 nM in assay [2]; below 2000 nM in the assay on A375; 2000 to 10000 nM in assay [3]; 2000 to 10000 nM in assay [4].

Take `COc1ccc(-c2c(C(=O)/C=C/c3ccccn3)c(=O)[nH]c3ccc(Cl)cc23)cc1` [Compound 80, 3-((2E)-3-(2-pyridyl)prop-2-enoyl)-6-chloro-4-(4-methoxyphenyl)hydroquinolin-2-one]: the IC50 is 10000 to 20000 nM in assay [1]; 2000 to 10000 nM in assay [2]; 2000 to 10000 nM in the assay with A375; 2000 to 10000 nM in assay [3]; 2000 to 10000 nM in assay [4].

In the case of `O=C(/C=C/c1cncc(F)c1)c1c(-c2ccc(Cl)cc2)c2cc(Cl)ccc2[nH]c1=O` [Compound 81, 3-[(2E)-3-(5-fluoro(3-pyridyl))prop-2-enoyl]-6-chloro-4-(4-chlorophenyl)hydroquinolin-2-one], the IC50 (in assay [1]; in assay [2]; in the assay with A375; in assay [3]; in assay [4]) was 2000 to 10000 nM throughout.

In the case of `O=C(/C=C/c1ccccn1)c1c(-c2ccc(Cl)cc2)c2cc(Cl)ccc2[nH]c1=O` [Compound 82, 3-((2E)-3-(2-pyridyl)prop-2-enoyl)-6-chloro-4-(4-chlorophenyl)hydroquinolin-2-one], the IC50 (in assay [1]; in assay [2]; in the assay with A375; in assay [3]; in assay [4]) was 2000 to 10000 nM each time.

Turning to `O=C(/C=C/c1cncc(F)c1)c1c(-c2ccc(C(F)(F)F)cc2)c2cc(Cl)ccc2[nH]c1=O` [Compound 83, 3-[(2E)-3-(5-fluoro(3-pyridyl))prop-2-enoyl]-6-chloro-4-[4-(trifluoromethyl)phenyl]hydroquinolin-2-one], the IC50 (in assay [1]; in assay [2]; in the assay on A375; in assay [3]; in assay [4]) was 2000 to 10000 nM each time.

Turning to `O=C(/C=C/c1ccccn1)c1c(-c2ccc(C(F)(F)F)cc2)c2cc(Cl)ccc2[nH]c1=O` [Compound 84, 3-((2E)-3-(2-pyridyl)prop-2-enoyl)-6-chloro-4-[4-(trifluoromethyl)phenyl]hydroquinolin-2-one], the IC50 is 2000 to 10000 nM in assay [1]; 2000 to 10000 nM in assay [2]; below 2000 nM in the assay on A375; 2000 to 10000 nM in assay [3]; 2000 to 10000 nM in assay [4].

Consider `Cc1ccc(-c2c(C(=O)/C=C/c3cncc(F)c3)c(=O)[nH]c3ccc(Cl)cc23)cc1` [Compound 85, 3-[(2E)-3-(5-fluoro(3-pyridyl))prop-2-enoyl]-6-chloro-4-(4-methylphenyl)hydroquinolin-2-one], for which the IC50 in assay [1] was 2000 to 10000 nM; in assay [2], 2000 to 10000 nM; in the assay with A375 it was below 2000 nM; in assay [3] it was 2000 to 10000 nM; in assay [4] it was 2000 to 10000 nM.

`Cc1ccc(-c2c(C(=O)/C=C/c3ccccn3)c(=O)[nH]c3ccc(Cl)cc23)cc1` [Compound 86, 3-((2E)-3-(2-pyridyl)prop-2-enoyl)-6-chloro-4-(4-methylphenyl)hydroquinolin-2-one]: the IC50 (in assay [1]; in assay [2]; in the assay with A375; in assay [3]; in assay [4]) was 2000 to 10000 nM in each case.

Turning to `O=C(/C=C/c1cncc(F)c1)c1c(-c2ccc(OC(F)(F)F)cc2)c2cc(Cl)ccc2[nH]c1=O` [Compound 87, 3-[(2E)-3-(5-fluoro(3-pyridyl))prop-2-enoyl]-6-chloro-4-[4-(trifluoromethoxy)phenyl]hydroquinolin-2-one], the concentration for half-maximal inhibition (IC50) (in assay [1]; in assay [2]; in the assay on A375; in assay [3]; in assay [4]) was 2000 to 10000 nM each time.

In the case of `O=C(/C=C/c1ccccn1)c1c(-c2ccc(OC(F)(F)F)cc2)c2cc(Cl)ccc2[nH]c1=O` [Compound 88, 3-((2E)-3-(2-pyridyl)prop-2-enoyl)-6-chloro-4-[4-(trifluoromethoxy)phenyl]hydroquinolin-2-one], the IC50 (in assay [1]; in assay [2]; with A375; in assay [3]; in assay [4]) was 2000 to 10000 nM each time.

As for `N#Cc1ccc(-c2c(C(=O)/C=C/c3cncc(F)c3)c(=O)[nH]c3ccc(Cl)cc23)cc1` [Compound 89], the half-maximal inhibitory concentration (IC50) (in assay [1]; in assay [2]; with A375; in assay [3]; in assay [4]) was 2000 to 10000 nM throughout.

Turning to `N#Cc1ccc(-c2c(C(=O)/C=C/c3ccccn3)c(=O)[nH]c3ccc(Cl)cc23)cc1` [Compound 90, 4-[3-((2E)-3-(2-pyridyl)prop-2-enoyl)-6-chloro-2-oxo-4-hydroquinolyl]benzenecarbonitrile], the 50% inhibitory concentration (IC50) is 10000 to 20000 nM in assay [1]; 2000 to 10000 nM in assay [2]; below 2000 nM in the assay with A375; 2000 to 10000 nM in assay [3]; 2000 to 10000 nM in assay [4].

Regarding `O=C(/C=C/c1cncc(F)c1)c1c(-c2ccc(Br)cc2)c2cc(Cl)ccc2[nH]c1=O` [Compound 91, 3-[(2E)-3-(5-fluoro(3-pyridyl))prop-2-enoyl]-4-(4-bromophenyl)-6-chlorohydroquinolin-2-one], the IC50 (in assay [1]; in assay [2]; in the assay on A375; in assay [3]; in assay [4]) was 2000 to 10000 nM in each case.

Take `O=C(/C=C/c1ccccn1)c1c(-c2ccc(Br)cc2)c2cc(Cl)ccc2[nH]c1=O` [Compound 92, 3-((2E)-3-(2-pyridyl)prop-2-enoyl)-4-(4-bromophenyl)-6-chlorohydroquinolin-2-one]: the IC50 was 2000 to 10000 nM in assay [1]; 2000 to 10000 nM in assay [2]; below 2000 nM in the assay on A375; 2000 to 10000 nM in assay [3]; 2000 to 10000 nM in assay [4].
